SMILES strings stand for the structures.

The target of this assay is mTOR/GbL/Raptor (mTORC1) (Homo sapiens, UniProt P42345). The assay is described as follows: mTOR/GbL/Raptor (mTORC1) ELISA assay. It is filed as biochemical. As to conditions: phosphorylation of 4E-BP1; 0.2 nM mTORC1, 10 μM ATP; read-out: IC50 in this assay (mTORC1 ELISA). In outline: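 Human mTORC1 (0.2 nM) phosphorylated 50 nM His-tagged 4E-BP1 with 10 µM ATP in HEPES pH 7.2 containing 10 mM MnCl2, 120 min at ambient temperature. Substrate was captured on Ni-chelate plates; phospho-4E-BP1 was detected by primary antibody and HRP secondary with luminescence.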
Background: In an ELISA, binding on a coated surface is turned into a signal by an enzyme label.
With `CC1(C)CCc2ncnc(N3CCOc4ccc(-c5cnc(N)c(S(=O)(=O)N6CC7(CNC7)C6)c5)cc4C3)c2C1` [Example 432, 3-(2,6-diazaspiro[3.3]hept-2-ylsulfonyl)-5-[4-(6,6-dimethyl-5,6,7,8-tetrahydroquinazolin-4-yl)-2,3,4,5-tetrahydro-1,4-benzoxazepin-7-yl]pyridin-2-amine], the IC50 (commonly the point on the concentration scale where inhibition reaches its midpoint) lay in the range of 10 to 50 nM.

`CC1(C)CCc2ncnc(N3CCOc4ccc(-c5cnc(N)c(S(=O)(=O)N6CCC6)c5)cc4C3)c2C1` [Example 434, 3-(azetidin-1-ylsulfonyl)-5-[4-(6,6-dimethyl-5,6,7,8-tetrahydroquinazolin-4-yl)-2,3,4,5-tetrahydro-1,4-benzoxazepin-7-yl]pyridine-2-amine]: the 50% inhibitory concentration (IC50) lay within 10 to 50 nM. The result for `CC1(C)CCc2ncnc(N3CCOc4ccc(-c5cnc(N)c(S(=O)(=O)N6C[C@H]7C[C@@H]6CN7)c5)cc4C3)c2C1` [Example 435, 2-[(1R,4R)-2,5-diazabicyclo[2.2.1]hept-2-ylsulfonyl]-5-[4-(6,6-dimethyl-5,6,7,8-tetrahydroquinazolin-4-yl)-2,3,4,5-tetrahydro-1,4-benzoxazepin-7-yl]pyridin-2-amine] reads 10 to 50 nM; that for `CC1(C)CCc2ncnc(N3CCOc4ccc(-c5cnc(N)c(S(=O)(=O)N6C[C@@H]7C[C@H]6CN7)c5)cc4C3)c2C1` [Example 436, 3-[(1S,4S)-2,5-diazabicyclo[2.2.1]hept-2-ylsulfonyl]-5-[4-(6,6-dimethyl-5,6,7,8-tetrahydroquinazolin-4-yl)-2,3,4,5-tetrahydro-1,4-benzoxazepin-7-yl]pyridin-2-amine], at most 10 nM. The result for `CC[C@H]1CCc2c(ncnc2N2CCOc3ccc(-c4cnc(N)c(S(=O)(=O)N5C[C@@H]6C[C@H]5CN6)c4)cc3C2)C1` [Example 437, 3-[(1S,4S)-2,5-diazabicyclo[2.2.1]hept-2-ylsulfonyl]-5-{4-[(7S)-7-ethyl-5,6,7,8-tetrahydroquinazolin-4-yl]-2,3,4,5-tetrahydro-1,4-benzoxazepin-7-yl}pyridin-2-amine] reads 10 to 50 nM; that for `CC1(C)CCc2ncnc(N3CCOc4ccc(-c5cnc(N)c(S(=O)(=O)N6CC(F)(F)C6)c5)cc4C3)c2C1` [Example 438, 3-[(3,3-difluoroazetidin-1-yl)sulfonyl]-5-[4-(6,6-dimethyl-5,6,7,8-tetrahydroquinazolin-4-yl)-2,3,4,5-tetrahydro-1,4-benzoxazepin-7-yl]pyridin-2-amine], 50 to 250 nM; that for `CC1(C)CCc2ncnc(N3CCOc4ccc(-c5cnc(N)c(S(=O)(=O)N6CC(C)(N)C6)c5)cc4C3)c2C1` [Example 439, 3-[(3-amino-3-methylazetidin-1-yl)sulfonyl]-5-[4-(6,6-dimethyl-5,6,7,8-tetrahydroquinazolin-4-yl)-2,3,4,5-tetrahydro-1,4-benzoxazepin-7-yl]pyridin-2-amine], at most 10 nM. `CC1(C)CCc2ncnc(N3CCOc4ccc(-c5cnc(N)c(S(=O)(=O)N6CCC(C)(N)C6)c5)cc4C3)c2C1` (stereo not shown) [Example 440, 3-[(3-amino-3-methylpyrrolidin-1-yl)sulfonyl]-5-[4-(6,6-dimethyl-5,6,7,8-tetrahydroquinazolin-4-yl)-2,3,4,5-tetrahydro-1,4-benzoxazepin-7-yl]pyridin-2-amine]: the concentration for half-maximal inhibition (IC50) was at most 10 nM. Regarding `CC[C@H]1CCc2c(nc(C)nc2N2CCOc3ccc(-c4cnc(N)c(S(=O)(=O)N5CCC(C)(N)C5)c4)cc3C2)C1` (stereo partly drawn) [Example 441, 3-[(3-amino-3-methylpyrrolidin-1-yl)sulfonyl]-5-{4-[(7S)-7-ethyl-2-methyl-5,6,7,8-tetrahydroquinazolin-4-yl]-2,3,4,5-tetrahydro-1,4-benzoxazepin-7-yl}pyridin-2-amine], the IC50 fell in the range of 10 to 50 nM.

Take `CC[C@H]1CCc2c(ncnc2N2CCOc3ccc(-c4cnc(N)c(S(=O)(=O)N5CCC(C)(N)C5)c4)cc3C2)C1` (stereo partly drawn) [Example 442, 3-[(3-amino-3-methylpyrrolidin-1-yl)sulfonyl]-5-{4-[(7S)-7-ethyl-5,6,7,8-tetrahydroquinazolin-4-yl]-2,3,4,5-tetrahydro-1,4-benzoxazepin-7-yl}pyridin-2-amine]: the half-maximal inhibitory concentration (IC50) was 10 to 50 nM. The result for `CC1(C)CCc2ncnc(N3CCOc4ccc(-c5cnc(N)c(S(=O)(=O)N6CC(N)C6)c5)cc4C3)c2C1` [Example 443, 3-[(3-aminoazetidin-1-yl)sulfonyl]-5-[4-(6,6-dimethyl-5,6,7,8-tetrahydroquinazolin-4-yl)-2,3,4,5-tetrahydro-1,4-benzoxazepin-7-yl]pyridin-2-amine] reads at most 10 nM; that for `CC1(C)CCc2ncnc(N3CCOc4ccc(-c5cnc(N)c(S(=O)(=O)N6CCCC(N)C6)c5)cc4C3)c2C1` (stereo not shown) [Example 444, 3-[(3-aminopiperidin-1-yl)sulfonyl]-5-[4-(6,6-dimethyl-5,6,7,8-tetrahydroquinazolin-4-yl)-2,3,4,5-tetrahydro-1,4-benzoxazepin-7-yl]pyridin-2-amine], 10 to 50 nM. For `CC1(C)CCc2ncnc(N3CCOc4ccc(-c5cnc(N)c(S(=O)(=O)N6CCC(N)CC6)c5)cc4C3)c2C1` [Example 446, 3-[(4-aminopiperidin-1-yl)sulfonyl]-5-[4-(6,6-dimethyl-5,6,7,8-tetrahydroquinazolin-4-yl)-2,3,4,5-tetrahydro-1,4-benzoxazepin-7-yl]pyridin-2-amine] the value was 10 to 50 nM; for `CC1=Cc2ncnc(N3CCOc4ccc(-c5cnc(N)c(S(=O)(=O)N6CC[C@@H](N)C6)c5)cc4C3)c2CC1(C)C` [Example 447, 3-{[(3R)-3-aminopyrrolidin-1-yl]sulfonyl}-5-[4-(6,6,7-trimethyl-5,6-dihydroquinazolin-4-yl)-2,3,4,5-tetrahydro-1,4-benzoxazepin-7-yl]pyridin-2-amine], at most 10 nM. The result for `CC1=CC(C)(C)Cc2c1ncnc2N1CCOc2ccc(-c3cnc(N)c(S(=O)(=O)N4CC[C@@H](N)C4)c3)cc2C1` [Example 448, 3-{[(3R)-3-aminopyrrolidin-1-yl]sulfonyl}-5-[4-(6,6,8-trimethyl-5,6-dihydroquinazolin-4-yl)-2,3,4,5-tetrahydro-1,4-benzoxazepin-7-yl]pyridin-2-amine] reads at most 10 nM; that for `CC1(C)CCc2ncnc(N3CCOc4ccc(-c5cnc(N)c(S(=O)(=O)N6CC[C@@H](N)C6)c5)cc4C3)c2C1` [Example 449, 3-{[(3R)-3-aminpyrrolidin-1-yl]sulfonyl}-5-[4-(6,6-dimethyl-5,6,7,8-tetrahydroquinazolin-4-yl)-2,3,4,5-tetrahydro-1,4-benzoxazepin-7-yl]pyridin-2-amine], at most 10 nM; that for `CC1(C)C=Cc2ncnc(N3CCOc4ccc(-c5cnc(N)c(S(=O)(=O)N6CC[C@@H](N)C6)c5)cc4C3)c2C1` [Example 450, 3-{[(3R)-3-aminopyrrolidin-1-yl]sulfonyl}-5-[4-(6,6-dimethyl-5,6-dihydroquinazolin-4-yl)-2,3,4,5-tetrahydro-1,4-benzoxazepin-7-yl]pyridin-2-amine], at most 10 nM. With `CC[C@H]1CCc2c(ncnc2N2CCOc3ccc(-c4cnc(N)c(S(=O)(=O)N5CC[C@@H](N)C5)c4)cc3C2)C1` [Example 451, 3-{[(3R)-3-aminopyrrolidin-1-yl]sulfonyl}-5-{4-[(7S)-7-ethyl-5,6,7,8-tetrahydroquinazolin-4-yl]-2,3,4,5-tetrahydro-1,4-benzoxazepin-7-yl}pyridin-2-amine], the half-inhibitory concentration (IC50) fell in the range of 10 to 50 nM. The result for `CC1(C)CCc2ncnc(N3CCOc4ccc(-c5cnc(N)c(S(=O)(=O)N6CC[C@H](N)C6)c5)cc4C3)c2C1` [Example 452, 3-{[(3S)-3-aminopyrrolidin-1-yl]sulfonyl}-5-[4-(6,6-dimethyl-5,6,7,8-tetrahydroquinazolin-4-yl)-2,3,4,5-tetrahydro-1,4-benzoxazepin-7-yl]pyridin-2-amine] reads at most 10 nM.

Turning to `CC1(C)CCc2ncnc(N3CCOc4ccc(-c5cnc(O)c(S(=O)(=O)N6CC[C@H](N)C6)c5)cc4C3)c2C1` [Example 453, 3-{[(3S)-3-aminopyrrolidin-1-yl]sulfonyl}-5-[4-(6,6-dimethyl-5,6,7,8-tetrahydroquinazolin-4-yl)-2,3,4,5-tetrahydro-1,4-benzoxazepin-7-yl]pyridin-2-ol], the half-maximal inhibitory concentration (IC50) was 50 to 250 nM. As for `COc1ccc2c(N3CCOc4ccc(-c5cnc(N)c(S(=O)(=O)N6CC[C@H](N)C6)c5)cc4C3)ncnc2c1` [Example 454, 3-{[(3S)-3-aminopyrrolidin-1-yl]sulfonyl}-5-{4-[7-(methyloxy)quinazolin-4-yl]-2,3,4,5-tetrahydro-1,4-benzoxazepin-7-yl}pyridin-2-amine], the concentration for half-maximal inhibition (IC50) lay within 250 to 1000 nM. On to `CN(C)C1CN(S(=O)(=O)c2cc(-c3ccc4c(c3)CN(c3ncnc5c3CC(C)(C)CC5)CCO4)cnc2N)C1` [Example 455, 3-{[3-(dimethylamino)azetidin-1-yl]sulfonyl}-5-[4-(6,6-dimethyl-5,6,7,8-tetrahydroquinazolin-4-yl)-2,3,4,5-tetrahydro-1,4-benzoxazepin-7-yl]pyridin-2-amine], for which the IC50 lay in the range of 50 to 250 nM. The result for `COc1ccc2c(N3CCOc4ccc(-c5cccc(C(=O)O)c5)cc4C3)nc(C)nc2c1` [Example 456, 3-{4-[2-methyl-7-(methyloxy)quinazolin-4-yl]-2,3,4,5-tetrahydro-1,4-benzoxazepin-7-yl}benzoic acid] reads at least 2000 nM; that for `CC1(C)CCc2ncnc(N3CCOc4ccc(-c5cnc(C(N)=O)c(N)c5)cc4C3)c2C1` [Example 457, 3-amino-5-[4-(6,6-dimethyl-5,6,7,8-tetrahydroquinazolin-4-yl)-2,3,4,5-tetrahydro-1,4-benzoxazepin-7-yl]pyridine-2-carboxamide], 50 to 250 nM; that for `CC(C)(O)CC[S+]([O-])c1cc(-c2ccc3c(c2)CN(c2ncnc4c2CC(C)(C)CC4)CCO3)cnc1N` (stereo not shown) [Example 458, 4-({2-amino-5-[4-(6,6-dimethyl-5,6,7,8-tetrahydroquinazolin-4-yl)-2,3,4,5-tetrahydro-1,4-benzoxazepin-7-yl]pyridin-3-yl}sulfinyl)-2-methylbutan-2-ol], 50 to 250 nM.

The values are drawn from patent US8648066B2 (Exelixis, Inc., priority 2009, dated 2014).
